From PMC5884507, “A group of Populus trichocarpa DUF231 proteins exhibit differential O-acetyltransferase activities toward xylan” (PLoS ONE, 2018)

Experiments:
Assay in all cases: radiolabelled acetyl transfer, scintillation counting
Assay type in all cases: biochemical
Conditions in all cases: 0.1 mM 14C-acetyl-CoA, 50 mM HEPES pH 7.0, 37 C, 4 hr
PtrXOAT7 = molecular target: T1, PtrXOAT7 (Populus trichocarpa, UniProt B9IGB9)
T1 construct: gene XOAT7; lumenal catalytic domain 38-426, transmembrane region removed; Igkappa leader, C-terminal c-myc and His6; secreted by HEK293F, nickel-purified

PtrXOAT10 = molecular target: T2, PtrXOAT10 (Populus trichocarpa, UniProt A0A2R4P4N0)
T2 construct: gene XOAT10; lumenal catalytic domain 55-438, transmembrane region removed; Igkappa leader, C-terminal c-myc and His6; secreted by HEK293F, nickel-purified

PtrXOAT4 = molecular target: T3, PtrXOAT4 (Populus trichocarpa, UniProt A0A2R4P4M0)
T3 construct: gene XOAT4; lumenal catalytic domain 37-428, transmembrane region removed; Igkappa leader, C-terminal c-myc and His6; secreted by HEK293F, nickel-purified

PtrXOAT8 = molecular target: T4, PtrXOAT8 (Populus trichocarpa, UniProt A0A2R4P4N1)
T4 construct: gene XOAT8; lumenal catalytic domain 33-415, transmembrane region removed; Igkappa leader, C-terminal c-myc and His6; secreted by HEK293F, nickel-purified

PtrXOAT6 = molecular target: T5, PtrXOAT6 (Populus trichocarpa, UniProt A0A2R4P4M4)
T5 construct: gene XOAT6; lumenal catalytic domain 36-446, transmembrane region removed; Igkappa leader, C-terminal c-myc and His6; secreted by HEK293F, nickel-purified

PtrXOAT5 = molecular target: T6, PtrXOAT5 (Populus trichocarpa, UniProt A0A2R4P4M8)
T6 construct: gene XOAT5; lumenal catalytic domain 33-470, transmembrane region removed; Igkappa leader, C-terminal c-myc and His6; secreted by HEK293F, nickel-purified

PtrXOAT9 = molecular target: T7, PtrXOAT9 (Populus trichocarpa, UniProt A0A2K1ZDC4)
T7 construct: gene XOAT9; lumenal catalytic domain 52-437, transmembrane region removed; Igkappa leader, C-terminal c-myc and His6; secreted by HEK293F, nickel-purified
T7 sequence (A0A2K1ZDC4 entry or part of it): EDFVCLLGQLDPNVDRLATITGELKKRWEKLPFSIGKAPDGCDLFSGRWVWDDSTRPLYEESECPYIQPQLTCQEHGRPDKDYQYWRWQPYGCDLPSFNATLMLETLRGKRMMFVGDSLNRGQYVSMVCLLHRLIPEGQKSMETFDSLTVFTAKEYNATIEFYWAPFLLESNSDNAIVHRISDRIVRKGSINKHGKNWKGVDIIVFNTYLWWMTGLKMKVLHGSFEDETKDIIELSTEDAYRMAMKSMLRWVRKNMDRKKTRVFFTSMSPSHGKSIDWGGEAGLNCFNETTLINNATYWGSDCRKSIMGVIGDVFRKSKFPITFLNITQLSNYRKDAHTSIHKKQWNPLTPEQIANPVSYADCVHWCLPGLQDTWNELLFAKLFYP

T1 sequence (B9IGB9 entry or part of it): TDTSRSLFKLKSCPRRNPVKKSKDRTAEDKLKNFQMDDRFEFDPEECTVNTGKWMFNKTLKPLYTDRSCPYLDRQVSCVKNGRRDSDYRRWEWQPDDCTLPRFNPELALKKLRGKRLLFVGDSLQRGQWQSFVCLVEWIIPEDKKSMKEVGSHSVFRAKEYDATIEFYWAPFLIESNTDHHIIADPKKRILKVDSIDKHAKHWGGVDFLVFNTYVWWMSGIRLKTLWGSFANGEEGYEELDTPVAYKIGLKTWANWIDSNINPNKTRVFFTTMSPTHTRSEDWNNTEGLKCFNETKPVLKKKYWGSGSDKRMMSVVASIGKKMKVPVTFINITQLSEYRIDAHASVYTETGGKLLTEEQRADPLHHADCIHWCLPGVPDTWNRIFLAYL
T2 sequence (A0A2R4P4N0 entry or part of it): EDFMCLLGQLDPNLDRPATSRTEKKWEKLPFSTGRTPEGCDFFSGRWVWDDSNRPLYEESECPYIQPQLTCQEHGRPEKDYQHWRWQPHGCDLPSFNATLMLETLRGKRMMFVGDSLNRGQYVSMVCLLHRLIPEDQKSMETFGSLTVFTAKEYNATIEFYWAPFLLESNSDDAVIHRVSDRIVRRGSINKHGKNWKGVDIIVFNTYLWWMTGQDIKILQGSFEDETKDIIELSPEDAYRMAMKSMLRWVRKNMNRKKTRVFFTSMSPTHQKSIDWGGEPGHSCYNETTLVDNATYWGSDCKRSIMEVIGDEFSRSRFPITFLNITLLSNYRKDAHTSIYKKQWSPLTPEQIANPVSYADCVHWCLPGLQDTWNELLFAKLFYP
T5 sequence (A0A2R4P4M4 entry or part of it): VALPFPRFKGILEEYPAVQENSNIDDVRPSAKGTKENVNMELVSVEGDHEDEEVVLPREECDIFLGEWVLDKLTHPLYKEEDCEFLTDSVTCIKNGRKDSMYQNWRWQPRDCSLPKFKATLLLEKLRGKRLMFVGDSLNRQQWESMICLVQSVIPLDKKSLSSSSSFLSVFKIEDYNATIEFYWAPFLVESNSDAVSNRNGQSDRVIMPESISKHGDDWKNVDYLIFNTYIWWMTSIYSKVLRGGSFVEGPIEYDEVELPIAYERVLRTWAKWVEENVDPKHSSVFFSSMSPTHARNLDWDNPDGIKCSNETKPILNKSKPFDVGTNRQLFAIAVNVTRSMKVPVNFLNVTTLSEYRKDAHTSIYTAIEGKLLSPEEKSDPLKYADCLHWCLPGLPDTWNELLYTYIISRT
T6 sequence (A0A2R4P4M8 entry or part of it): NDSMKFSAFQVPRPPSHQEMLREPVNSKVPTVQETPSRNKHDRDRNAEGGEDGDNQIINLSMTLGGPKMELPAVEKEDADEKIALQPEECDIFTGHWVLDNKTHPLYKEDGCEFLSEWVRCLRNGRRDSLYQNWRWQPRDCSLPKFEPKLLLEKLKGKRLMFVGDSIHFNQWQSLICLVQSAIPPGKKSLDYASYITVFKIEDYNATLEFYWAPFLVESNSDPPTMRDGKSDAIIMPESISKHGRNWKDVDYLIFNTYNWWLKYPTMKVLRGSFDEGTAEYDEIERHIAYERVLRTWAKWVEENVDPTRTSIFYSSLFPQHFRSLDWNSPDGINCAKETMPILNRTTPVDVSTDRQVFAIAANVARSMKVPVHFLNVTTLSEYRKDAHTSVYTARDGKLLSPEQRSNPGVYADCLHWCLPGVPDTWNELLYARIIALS
T4 sequence (A0A2R4P4N1 entry or part of it): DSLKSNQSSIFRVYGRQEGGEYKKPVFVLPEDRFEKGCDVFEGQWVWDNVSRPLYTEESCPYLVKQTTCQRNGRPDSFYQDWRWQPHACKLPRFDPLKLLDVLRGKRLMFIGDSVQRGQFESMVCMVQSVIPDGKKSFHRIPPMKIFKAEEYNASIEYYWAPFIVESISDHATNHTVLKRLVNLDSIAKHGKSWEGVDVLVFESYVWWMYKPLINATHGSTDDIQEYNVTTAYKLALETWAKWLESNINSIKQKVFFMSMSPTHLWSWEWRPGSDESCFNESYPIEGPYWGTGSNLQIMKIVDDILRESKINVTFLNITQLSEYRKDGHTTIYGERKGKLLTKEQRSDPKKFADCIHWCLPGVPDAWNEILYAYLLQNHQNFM
T3 sequence (A0A2R4P4M0 entry or part of it): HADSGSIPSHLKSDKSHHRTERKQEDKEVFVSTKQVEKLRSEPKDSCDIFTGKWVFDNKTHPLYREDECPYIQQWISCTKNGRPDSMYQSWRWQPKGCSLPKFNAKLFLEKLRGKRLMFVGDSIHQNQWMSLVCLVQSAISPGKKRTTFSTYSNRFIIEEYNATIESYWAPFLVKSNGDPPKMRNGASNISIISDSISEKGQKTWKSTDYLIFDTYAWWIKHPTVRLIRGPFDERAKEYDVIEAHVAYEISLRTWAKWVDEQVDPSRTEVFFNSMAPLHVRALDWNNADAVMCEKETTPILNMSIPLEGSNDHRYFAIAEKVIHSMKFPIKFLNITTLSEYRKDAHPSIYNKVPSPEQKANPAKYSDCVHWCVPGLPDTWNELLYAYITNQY

OC1OC[C@@H](O[C@@H]2OC[C@@H](O[C@@H]3OC[C@@H](O[C@@H]4OC[C@@H](O[C@@H]5OC[C@@H](O[C@@H]6OC[C@@H](O)[C@H](O)[C@H]6O)[C@H](O)[C@H]5O)[C@H](O)[C@H]4O)[C@H](O)[C@H]3O)[C@H](O)[C@H]2O)[C@H](O)[C@H]1O (stereo partly shown) [Xyl6, xylohexaose]
radiolabelled acetyl transfer, scintillation counting (PtrXOAT7): PtrXOAT4 to PtrXOAT10 had a low level of activity
radiolabelled acetyl transfer, scintillation counting (PtrXOAT10): PtrXOAT4 to PtrXOAT10 had a low level of activity
radiolabelled acetyl transfer, scintillation counting (PtrXOAT4): PtrXOAT4 to PtrXOAT10 had a low level of activity
radiolabelled acetyl transfer, scintillation counting (PtrXOAT8): PtrXOAT4 to PtrXOAT10 had a low level of activity
radiolabelled acetyl transfer, scintillation counting (PtrXOAT6): PtrXOAT4 to PtrXOAT10 had a low level of activity
radiolabelled acetyl transfer, scintillation counting (PtrXOAT5): PtrXOAT4 to PtrXOAT10 had a low level of activity
radiolabelled acetyl transfer, scintillation counting (PtrXOAT9): PtrXOAT4 to PtrXOAT10 had a low level of activity
